Assay results taken from ChEMBL document CHEMBL2401638, “Design and synthesis of biquinolone-isoniazid hybrids as a new class of antitubercular and antimicrobial agents” (Eur J Med Chem, 2013).
Converted amounts (≈) assume the structure as drawn.

How the values were obtained:
Staphylococcus aureus = assay: Antibacterial activity against Staphylococcus aureus MTCC 96 assessed as growth inhibition by broth microdilution method; format: functional
[1] = Cytotoxicity in Artemia cysts assessed as mortality of nauplii at 40 ug/mL after 24 hrs relative to control; format: organism-based; settings: in vivo
Bacillus subtilis = assay: Antibacterial activity against Bacillus subtilis MTCC 441 assessed as growth inhibition by broth microdilution method; format: functional
Escherichia coli = assay: Antibacterial activity against Escherichia coli MTCC 443 assessed as growth inhibition by broth microdilution method; format: functional
Clostridium tetani = assay: Antibacterial activity against Clostridium tetani MTCC 449 assessed as growth inhibition by broth microdilution method; format: functional
[2] = tested on: Mycobacterium tuberculosis; assay: Antituberculosis activity against Mycobacterium tuberculosis H37Rv assessed as growth inhibition after 12 to 28 days by Lowenstein-Jensen method; format: functional
Pseudomonas aeruginosa = assay: Antibacterial activity against Pseudomonas aeruginosa MTCC 1688 assessed as growth inhibition by broth microdilution method; format: functional
[3] = Cytotoxicity in Artemia cysts assessed as mortality of nauplii at 20 ug/mL after 24 hrs relative to control; format: organism-based; settings: in vivo
[4] = Cytotoxicity in Artemia cysts assessed as mortality of nauplii at 30 ug/mL after 24 hrs relative to control; format: organism-based; settings: in vivo
[5] = tested on: Mycobacterium tuberculosis; assay: Antituberculosis activity against Mycobacterium tuberculosis H37Rv assessed as growth inhibition at 250 ug/ml after 12 to 28 days by Lowenstein-Jensen method relative to control; format: functional; settings: read-out: GI
Salmonella typhi = assay: Antibacterial activity against Salmonella typhi MTCC 98 assessed as growth inhibition by broth microdilution method; format: functional, Salmonella enterica subsp. enterica serovar Typhi; settings: Salmonella enterica
Candida albicans = assay: Antifungal activity against Candida albicans MTCC 227 assessed as growth inhibition by broth microdilution method; format: functional
[6] = Cytotoxicity in Artemia cysts assessed as mortality of nauplii at 5 ug/mL after 24 hrs relative to control; format: organism-based; settings: in vivo
Trichophyton rubrum = assay: Antifungal activity against Trichophyton rubrum MTCC 296 assessed as growth inhibition by broth microdilution method; format: functional
[7] = Cytotoxicity in Artemia cysts assessed as mortality of nauplii at 50 ug/mL after 24 hrs relative to control; format: organism-based; settings: in vivo
[8] = Cytotoxicity in Artemia cysts assessed as mortality of nauplii after 24 hrs; format: organism-based; settings: in vivo
[9] = Cytotoxicity in Artemia cysts assessed as mortality of nauplii at 10 ug/mL after 24 hrs relative to control; format: organism-based; settings: in vivo

C=CCn1c(=O)c(C2C(C(=O)OC(C)C)=C(N)N(NC(=O)c3ccncc3)C3=C2C(=O)CC(C)(C)C3)cc2cc(Cl)ccc21 (configuration not stated)
MIC (Staphylococcus aureus): 125 µg/mL | mortality at 24 h, 40 ug/mL [1]: 70% | MIC (Bacillus subtilis): 500 µg/mL | MIC (Escherichia coli): 200 µg/mL | MIC (Clostridium tetani): 125 µg/mL | MIC [2]: 62.5 µg/mL (≈ 101 µM) | MIC (Pseudomonas aeruginosa): 500 µg/mL | mortality at 24 h, 20 ug/mL [3]: 30% | mortality at 24 h, 30 ug/mL [4]: 50% | inhibition of growth at 250 µg/mL [5]: 94% | MIC (Salmonella typhi): 125 µg/mL | MIC (Candida albicans): 1000 µg/mL | mortality at 24 h, 5 ug/mL [6]: 0% | MIC (Trichophyton rubrum): 500 µg/mL | mortality at 24 h, 50 ug/mL [7]: 90% | LC50 at 24 h [8]: 24.5 µg/mL (≈ 39.7 µM) | mortality at 24 h, 10 ug/mL [9]: 10%

C=CCn1c(=O)c(C2C(C(=O)OC)=C(N)N(NC(=O)c3ccncc3)C3=C2C(=O)CC(C)(C)C3)cc2cc(C)ccc21 (configuration not stated)
MIC (Staphylococcus aureus): 500 µg/mL | mortality at 24 h, 40 ug/mL [1]: 60% | MIC (Bacillus subtilis): 200 µg/mL | MIC (Escherichia coli): 125 µg/mL | MIC (Clostridium tetani): 500 µg/mL | MIC [2]: 25 µg/mL (≈ 44 µM) | MIC (Pseudomonas aeruginosa): 250 µg/mL | mortality at 24 h, 20 ug/mL [3]: 20% | mortality at 24 h, 30 ug/mL [4]: 40% | inhibition of growth at 250 µg/mL [5]: 99% | MIC (Salmonella typhi): 100 µg/mL | MIC (Candida albicans): 500 µg/mL | mortality at 24 h, 5 ug/mL [6]: 0% | MIC (Trichophyton rubrum): > 1000 µg/mL | mortality at 24 h, 50 ug/mL [7]: 70% | LC50 at 24 h [8]: 34.6 µg/mL (≈ 60.9 µM) | mortality at 24 h, 10 ug/mL [9]: 10%

NNC(=O)c1ccncc1 [ISONIAZID]
MIC [2]: 0.2 µg/mL (≈ 1.46 µM) | inhibition of growth at 250 µg/mL [5]: 99%

C=CCn1c(=O)c(C2C(C(=O)OC(C)C)=C(N)N(NC(=O)c3ccncc3)C3=C2C(=O)CC(C)(C)C3)cc2cc(C)ccc21 (configuration not stated)
MIC (Staphylococcus aureus): 500 µg/mL | mortality at 24 h, 40 ug/mL [1]: 50% | MIC (Bacillus subtilis): 500 µg/mL | MIC (Escherichia coli): 125 µg/mL | MIC (Clostridium tetani): 500 µg/mL | MIC [2]: 12.5 µg/mL (≈ 21 µM) | MIC (Pseudomonas aeruginosa): 200 µg/mL | mortality at 24 h, 20 ug/mL [3]: 30% | mortality at 24 h, 30 ug/mL [4]: 40% | inhibition of growth at 250 µg/mL [5]: 99% | MIC (Salmonella typhi): 200 µg/mL | MIC (Candida albicans): 500 µg/mL | mortality at 24 h, 5 ug/mL [6]: 0% | MIC (Trichophyton rubrum): 1000 µg/mL | mortality at 24 h, 50 ug/mL [7]: 70% | LC50 at 24 h [8]: 35.4 µg/mL (≈ 59.4 µM) | mortality at 24 h, 10 ug/mL [9]: 10%

C=CCn1c(=O)c(C2C(C(=O)OCC)=C(N)N(NC(=O)c3ccncc3)C3=C2C(=O)CC(C)(C)C3)cc2cc(OC)ccc21 (configuration not stated)
MIC (Staphylococcus aureus): 200 µg/mL | mortality at 24 h, 40 ug/mL [1]: 60% | MIC (Bacillus subtilis): 125 µg/mL | MIC (Escherichia coli): 250 µg/mL | MIC (Clostridium tetani): 250 µg/mL | MIC [2]: 100 µg/mL (≈ 167 µM) | MIC (Pseudomonas aeruginosa): 125 µg/mL | mortality at 24 h, 20 ug/mL [3]: 30% | mortality at 24 h, 30 ug/mL [4]: 50% | inhibition of growth at 250 µg/mL [5]: 96% | MIC (Salmonella typhi): 125 µg/mL | MIC (Candida albicans): 500 µg/mL | mortality at 24 h, 5 ug/mL [6]: 10% | MIC (Trichophyton rubrum): 1000 µg/mL | mortality at 24 h, 50 ug/mL [7]: 80% | LC50 at 24 h [8]: 26.6 µg/mL (≈ 44.5 µM) | mortality at 24 h, 10 ug/mL [9]: 20%

COc1cc([C@@H]2c3cc4c(cc3[C@@H](O[C@@H]3O[C@@H]5CO[C@@H](C)O[C@H]5[C@H](O)[C@H]3O)[C@H]3COC(=O)[C@H]23)OCO4)cc(OC)c1O [ETOPOSIDE]
LC50 at 24 h [8]: 7.46 µg/mL (≈ 12.7 µM)

C=CCn1c(=O)c(C2C(C(=O)OC)=C(N)N(NC(=O)c3ccncc3)C3=C2C(=O)CCC3)cc2cc(OC)ccc21 (configuration not stated)
MIC (Staphylococcus aureus): 200 µg/mL | mortality at 24 h, 40 ug/mL [1]: 80% | MIC (Bacillus subtilis): 50 µg/mL | MIC (Escherichia coli): 100 µg/mL | MIC (Clostridium tetani): 125 µg/mL | MIC [2]: 50 µg/mL (≈ 90 µM) | MIC (Pseudomonas aeruginosa): 125 µg/mL | mortality at 24 h, 20 ug/mL [3]: 40% | mortality at 24 h, 30 ug/mL [4]: 60% | inhibition of growth at 250 µg/mL [5]: 98% | MIC (Salmonella typhi): 125 µg/mL | MIC (Candida albicans): 1000 µg/mL | mortality at 24 h, 5 ug/mL [6]: 10% | MIC (Trichophyton rubrum): > 1000 µg/mL | mortality at 24 h, 50 ug/mL [7]: 90% | LC50 at 24 h [8]: 19.7 µg/mL (≈ 35.4 µM) | mortality at 24 h, 10 ug/mL [9]: 20%

C=CCn1c(=O)c(C2C(C(=O)OCC)=C(N)N(NC(=O)c3ccncc3)C3=C2C(=O)CC(C)(C)C3)cc2cc(C)ccc21 (configuration not stated)
MIC (Staphylococcus aureus): 125 µg/mL | mortality at 24 h, 40 ug/mL [1]: 60% | MIC (Bacillus subtilis): 500 µg/mL | MIC (Escherichia coli): 62.5 µg/mL | MIC (Clostridium tetani): 125 µg/mL | MIC [2]: 62.5 µg/mL (≈ 107 µM) | MIC (Pseudomonas aeruginosa): 500 µg/mL | mortality at 24 h, 20 ug/mL [3]: 30% | mortality at 24 h, 30 ug/mL [4]: 40% | inhibition of growth at 250 µg/mL [5]: 94% | MIC (Salmonella typhi): 125 µg/mL | MIC (Candida albicans): 500 µg/mL | mortality at 24 h, 5 ug/mL [6]: 0% | MIC (Trichophyton rubrum): 1000 µg/mL | mortality at 24 h, 50 ug/mL [7]: 80% | LC50 at 24 h [8]: 28.6 µg/mL (≈ 49.1 µM) | mortality at 24 h, 10 ug/mL [9]: 20%

CO[C@H]1/C=C/O[C@@]2(C)Oc3c(C)c(O)c4c(O)c(c(/C=N/N5CCN(C)CC5)c(O)c4c3C2=O)NC(=O)/C(C)=C\C=C\[C@H](C)[C@H](O)[C@@H](C)[C@@H](O)[C@@H](C)[C@H](OC(C)=O)[C@@H]1C [RIFAMPIN]
MIC [2]: 40 µg/mL (≈ 48.6 µM) | inhibition of growth at 250 µg/mL [5]: 98%
